Reference: patent US20080293583A1, “Methods for diagnosing mood disorders” (Wyeth, priority 2003, published 2008)

System: Fatty Acid-Binding Protein, Heart (H-FABP)
Test: 2-DE proteome analysis of rat hippocampus: H-FABP
Assay type: in vivo
Settings: rat hippocampus cytosolic extract, 10 mg/kg i.p. daily 14 days, vs control; gel spot 89
Protocol: Animal dosing. Adult male Sprague Dawley rats weighing 230-320 g were housed with ad libitum access to food and water. After 1 week of habituation, rats were administered either an antidepressant or vehicle alone. The following drugs were administered intraperitoneally (i.p.): fluoxetine (10 mg/kg daily), venlafaxine (10 mg/kg daily) or vehicle alone (1 ml/kg normal saline daily) for 14 days (n=3 rats per group).
Sample preparation and cytosolic protein extraction. The animals were euthanized and hippocampi were rapidly dissected from the whole brain. Samples from each treatment group were pooled and stored at −85° C. Cytosolic extracts were prepared using the universal extraction kit from Sigma (prot-two) as follows: soluble cytoplasmic extraction reagent (S2688) was added to the hippocampal tissue (10 ml/250 mg wet weight). […]
Two-dimensional gel electrophoresis. […] Molecular masses were determined by running standard protein markers (Genomic Solutions Inc.), covering the range 10-200 kDa as well as internal verification via landmark proteins within the gel. […]
Protein fixation, silver staining and 2-D gel comparisons. […] Protein spots were outlined (first automatically and then manually) and quantified using the HT analyzer v2.2 software (Genomic Solutions Inc.). The software calculated the relative spot volume of the proteins compared with the total amount of protein in the gel. […]

SMILES | Fold change, Fatty Acid-Binding Protein, Heart (H-FABP)
CNCCC(Oc1ccc(C(F)(F)F)cc1)c1ccccc1 (centres unmarked) [Fluoxetine, fluoxetine] | 1.6 Fold change
COc1ccc(C(CN(C)C)C2(O)CCCCC2)cc1 (centres unmarked) [Venlafaxine, venlafaxine] | 2.1 Fold change
